In patent publication US20210024542A1 (Torcept Therapeutics, Inc., priority 2018, published 2021):

Key:
TF-1 = experiment: OncoPanel cell proliferation assay, TF-1; type: cell-based, human; conditions: for Relative cell count (%) Mean: TF-1
Protocol: (§1) Cells were grown in RPMI 1640, 10% FBS, 2 mM L-alanyl-L-glutamine, 1 mM Na pyruvate, or a special medium. Cells were seeded into 384-well plates and incubated in a humidified atmosphere of 5% CO2 at 37° C. Compounds were added the day following cell seeding. At the same time, a time zero untreated cell plate was generated. After a 3-day incubation period, cells were fixed and stained to allow fluorescence imaging of nuclei. Compounds (1 mM stock solutions) were serially diluted in half-log steps from the highest test concentration ([…]), and assayed over 10 concentrations with a maximum assay concentration of 0.1% DMSO. Automated fluorescence microscopy was carried out using a Molecular Devices ImageXpress Micro XL high-content imager, and images were collected with a 4× objective. 16-bit TIFF images were acquired and analyzed with MetaXpress 5.1.0.41 software.
(§2) Cell proliferation was measured by the fluorescence intensity of an incorporated nuclear dye. The output is referred to as the relative cell count, where the measured nuclear intensity is transformed to percent of control (POC) using the following formula: […]
(§3) Cellular response parameters were calculated using nonlinear regression to a sigmoidal single-site dose response model:
(§4) Where y is a response measured at concentration x, A and B are the lower and upper limits of the response, C is the concentration at the response midpoint (EC50), and D is the Hill Slope (Ref. 1).
(§5) EC50 is the test compound concentration at the curve inflection point or half the effective response (parameter C of the fitted curve solution). GI50 is the concentration needed to reduce the observed growth by half (midway between the curve maximum and the time zero value). “Cell Count Activity Area” is an estimate of the integrated area above the curve (Barretina, et al. The Cancer Cell Line Encyclopedia enables predictive modelling of anticancer drug sensitivity. Nature 483: 603-607). […] In rare instances, values <0 or >10 may be observed. […] Curve-fitting, calculations, and report generation was performed using a custom data reduction engine and MathIQ based software (AIM).

SHP-77 = experiment: OncoPanel cell proliferation assay, SHP-77; conditions: for Relative cell count (%) Mean: SHP-77
Protocol: (§6) Cells were seeded into 384-well plates and incubated in a humidified atmosphere of 5% CO2 at 37° C. Compounds were added the day following cell seeding. At the same time, a time zero untreated cell plate was generated. After a 3-day incubation period, cells were fixed and stained to allow fluorescence imaging of nuclei. Compounds (1 mM stock solutions) were serially diluted in half-log steps from the highest test concentration (1 micromol), and assayed over 10 concentrations with a maximum assay concentration of 0.1% DMSO. Automated fluorescence microscopy was carried out using a Molecular Devices ImageXpress Micro XL high-content imager, and images were collected with a 4× objective. 16-bit TIFF images were acquired and analyzed with MetaXpress 5.1.0.41 software.

SNU-C2B = experiment: OncoPanel cell proliferation assay, SNU-C2B; type: cell-based, human
Protocol: as §1, §2, §3, §4, §5

DMS114 = experiment: OncoPanel cell proliferation assay, DMS114; type: cell-based, human; conditions: for Relative cell count (%) Mean: DMS114
Protocol: as §1, with “Cells” for “Cells were grown in RPMI 1640, 10% FBS, 2 mM L-alanyl-L-glutamine, 1 mM Na pyruvate, or a special medium. Cells”
as §2, §3, §4
GI50 is the concentration needed to reduce the observed growth by half (midway between the curve maximum and the time zero value). […] In rare instances, values <0 or >10 may be observed. […] Curve-fitting, calculations, and report generation was performed using a custom data reduction engine and MathIQ based software (AIM).

PC-3 = experiment: OncoPanel cell proliferation assay, PC-3; conditions: for Relative cell count (%) Mean: PC-3
Protocol: as §6

SK-NEP-1 = experiment: OncoPanel cell proliferation assay, SK-NEP-1; conditions: for Relative cell count (%) Mean: SK-NEP-1
Protocol: as §6

CML-T1 = experiment: OncoPanel cell proliferation assay, CML-T1; type: cell-based, human; conditions: CML-T1, scale 0-10
Protocol: as §1, §2, §3, §4, §5

For `CO[C@H]1C[C@@H]2CC[C@@H](C)[C@@](O)(O2)C(=O)C(=O)N2CCCC[C@H]2C(=O)O[C@H]([C@H](C)C[C@@H]2C[C@@H]3C[C@H]2C[C@H]3O)CC(=O)[C@H](C)/C=C(\C)[C@@H](O)[C@@H](OC)C(=O)[C@H](C)C[C@H](C)/C=C/C=C/C=C/1C` [Formula I, 37R-hydroxynorbornylrapamycin], the EC50 (TF-1; Homo sapiens, 72 h, TF-1, 3-day incubation, read-out: Cell Count EC50) was > 1000 nM, the GI50 (TF-1; Homo sapiens, 72 h, TF-1, 3-day incubation, read-out: Cell Count GI50) was > 1000 nM and the IC50 (TF-1; Homo sapiens, 72 h, TF-1, 3-day incubation, read-out: Cell Count IC50) was > 1000 nM. For the same compound, the “Cell Count Activity Area” value (TF-1; TF-1, scale 0-10) was 1.64, the “Relative cell count (%) Mean” value (TF-1; 1.00E+00 microM) was 80.6% and the “Relative cell count (%) Mean” value (TF-1; 1.00E−01 microM) was 80.1%. For the same compound, the “Relative cell count (%) Mean” value (TF-1; 1.00E−02 microM) was 81.1%, the “Relative cell count (%) Mean” value (TF-1; 1.00E−03 microM) was 87.4% and the “Relative cell count (%) Mean” value (TF-1; 1.01E−04 microM) was 97.8%. For the same compound, the “Relative cell count (%) Mean” value (TF-1; 3.16E−01 microM) was 80.1%, the “Relative cell count (%) Mean” value (TF-1; 3.17E−02 microM) was 81.3% and the “Relative cell count (%) Mean” value (TF-1; 3.17E−03 microM) was 88.0%. For the same compound, the “Relative cell count (%) Mean” value (TF-1; 3.18E−04 microM) was 88.0%, the “Relative cell count (%) Mean” value (TF-1; 3.18E−05 microM) was 96.7% and the EC50 (SHP-77; Homo sapiens, SHP77, 72 h, read-out: Cell Count EC50) was 309 nM. The GI50 (SHP-77; Homo sapiens, SHP77, 72 h, read-out: Cell Count GI50) was > 1000 nM, the IC50 (SHP-77; Homo sapiens, SHP77, 72 h, read-out: Cell Count IC50) was > 1000 nM and the “Cell Count Activity Area” value (SHP-77; SHP-77, scale 0-10) was 1.18. The “Relative cell count (%) Mean” value (SHP-77; 1.00E+00 microM) was 71.6%, the “Relative cell count (%) Mean” value (SHP-77; 1.00E−01 microM) was 83.4% and the “Relative cell count (%) Mean” value (SHP-77; 1.00E−02 microM) was 94.0%. For the same compound, the “Relative cell count (%) Mean” value (SHP-77; 1.00E−03 microM) was 96.5%, the “Relative cell count (%) Mean” value (SHP-77; 1.01E−04 microM) was 98.0% and the “Relative cell count (%) Mean” value (SHP-77; 3.16E−01 microM) was 75.9%. The “Relative cell count (%) Mean” value (SHP-77; 3.17E−02 microM) was 84.9%, the “Relative cell count (%) Mean” value (SHP-77; 3.17E−03 microM) was 89.5% and the “Relative cell count (%) Mean” value (SHP-77; 3.18E−04 microM) was 101.7%. For the same compound, the “Relative cell count (%) Mean” value (SHP-77; 3.18E−05 microM) was 99.1%, the “Relative cell count (%) Mean” value (SNU-C2B; 1.00E+00 microM) was 58.7% and the “Relative cell count (%) Mean” value (SNU-C2B; 1.00E−01 microM) was 65.6%. The “Relative cell count (%) Mean” value (SNU-C2B; 1.00E−02 microM) was 68.6%, the “Relative cell count (%) Mean” value (SNU-C2B; 1.00E−03 microM) was 73.7% and the “Relative cell count (%) Mean” value (SNU-C2B; 1.01E−04 microM) was 89.1%. The “Relative cell count (%) Mean” value (SNU-C2B; 3.16E−01 microM) was 55.1%, the “Relative cell count (%) Mean” value (SNU-C2B; 3.17E−02 microM) was 63.2% and the “Relative cell count (%) Mean” value (SNU-C2B; 3.17E−03 microM) was 71.6%. For the same compound, the “Relative cell count (%) Mean” value (SNU-C2B; 3.18E−04 microM) was 79.6%, the “Relative cell count (%) Mean” value (SNU-C2B; 3.18E−05 microM) was 83.2% and the EC50 (SNU-C2B; Homo sapiens, 72 h, 3-day incubation, read-out: Cell Count EC50) was 2.07 nM. For the same compound, the GI50 (SNU-C2B; Homo sapiens, 72 h, 3-day incubation, read-out: Cell Count GI50) was 24.1 nM, the IC50 (SNU-C2B; Homo sapiens, 72 h, 3-day incubation, read-out: Cell Count IC50) was > 1000 nM and the “Cell Count Activity Area” value (SNU-C2B; scale 0-10) was 2.30. For the same compound, the “Cell Count Activity Area” value (DMS114; DMS114, scale 0-10) was 4.35, the “Relative cell count (%) Mean” value (DMS114; 1.00E+00 microM) was 39.3% and the “Relative cell count (%) Mean” value (DMS114; 1.00E−01 microM) was 44.1%. For the same compound, the “Relative cell count (%) Mean” value (DMS114; 1.00E−02 microM) was 50.7%, the “Relative cell count (%) Mean” value (DMS114; 1.00E−03 microM) was 57.7% and the “Relative cell count (%) Mean” value (DMS114; 1.01E−04 microM) was 77.8%. The “Relative cell count (%) Mean” value (DMS114; 3.16E−01 microM) was 41.4%, the “Relative cell count (%) Mean” value (DMS114; 3.17E−02 microM) was 44.7% and the “Relative cell count (%) Mean” value (DMS114; 3.17E−03 microM) was 51.7%. For the same compound, the “Relative cell count (%) Mean” value (DMS114; 3.18E−04 microM) was 67.2%, the “Relative cell count (%) Mean” value (DMS114; 3.18E−05 microM) was 90.1% and the EC50 (DMS114; Homo sapiens, DMS-114, 72 h, DMS114, 3-day incubation, read-out: Cell Count EC50) was 0.251 nM. The GI50 (DMS114; Homo sapiens, DMS-114, 72 h, DMS114, 3-day incubation, read-out: Cell Count GI50) was 0.0822 nM, the IC50 (DMS114; Homo sapiens, DMS-114, 72 h, DMS114, 3-day incubation, read-out: Cell Count IC50) was 4.4 nM and the EC50 (PC-3; Homo sapiens, PC-3, 72 h, read-out: Cell Count EC50) was 0.346 nM. For the same compound, the GI50 (PC-3; Homo sapiens, PC-3, 72 h, read-out: Cell Count GI50) was 1.89 nM, the IC50 (PC-3; Homo sapiens, PC-3, 72 h, read-out: Cell Count IC50) was 9.55 nM and the “Cell Count Activity Area” value (PC-3; PC-3, scale 0-10) was 3.97. For the same compound, the “Relative cell count (%) Mean” value (PC-3; 1.00E+00 microM) was 42.2%, the “Relative cell count (%) Mean” value (PC-3; 1.00E−01 microM) was 47.9% and the “Relative cell count (%) Mean” value (PC-3; 1.00E−02 microM) was 53.6%. The “Relative cell count (%) Mean” value (PC-3; 1.00E−03 microM) was 59.2%, the “Relative cell count (%) Mean” value (PC-3; 1.01E−04 microM) was 87.3% and the “Relative cell count (%) Mean” value (PC-3; 3.16E−01 microM) was 43.8%. For the same compound, the “Relative cell count (%) Mean” value (PC-3; 3.17E−02 microM) was 47.1%, the “Relative cell count (%) Mean” value (PC-3; 3.17E−03 microM) was 59.0% and the “Relative cell count (%) Mean” value (PC-3; 3.18E−04 microM) was 69.1%. The “Relative cell count (%) Mean” value (PC-3; 3.18E−05 microM) was 93.7%, the EC50 (SK-NEP-1; Homo sapiens, SK-NEP-1, 72 h, read-out: Cell Count EC50) was 0.706 nM and the GI50 (SK-NEP-1; Homo sapiens, SK-NEP-1, 72 h, read-out: Cell Count GI50) was 0.747 nM. For the same compound, the IC50 (SK-NEP-1; Homo sapiens, SK-NEP-1, 72 h, read-out: Cell Count IC50) was 2.42 nM, the “Cell Count Activity Area” value (SK-NEP-1; SK-NEP-1, scale 0-10) was 4.35 and the “Relative cell count (%) Mean” value (SK-NEP-1; 1.00E+00 microM) was 35.6%. The “Relative cell count (%) Mean” value (SK-NEP-1; 1.00E−01 microM) was 38.6%, the “Relative cell count (%) Mean” value (SK-NEP-1; 1.00E−02 microM) was 45.3% and the “Relative cell count (%) Mean” value (SK-NEP-1; 1.00E−03 microM) was 63.5%. For the same compound, the “Relative cell count (%) Mean” value (SK-NEP-1; 1.01E−04 microM) was 100.0%, the “Relative cell count (%) Mean” value (SK-NEP-1; 3.16E−01 microM) was 35.6% and the “Relative cell count (%) Mean” value (SK-NEP-1; 3.17E−02 microM) was 40.0%. The “Relative cell count (%) Mean” value (SK-NEP-1; 3.17E−03 microM) was 48.8%, the “Relative cell count (%) Mean” value (SK-NEP-1; 3.18E−04 microM) was 83.9% and the “Relative cell count (%) Mean” value (SK-NEP-1; 3.18E−05 microM) was 99.4%. The “Cell Count Activity Area” value (CML-T1) was 4.54.
